This note sets out measurements from patent US8242275B2, “Bicyclic pyrazole compounds as antibacterial agents” (Janssen Pharmaceutica NV, priority 2005, dated 2012).

Converted amounts (≈) assume the structure as drawn.

Test [1] deals with E. coli KL-16 (GSC strain 4245). The test can be described thus: In vitro antibacterial activity (MIC assay), broth microdilution. The note with it: Escherichia coli. It counts as cell-based. In a few lines: (§1)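 Bacteria at roughly 5×10^5 CFU/mL final were grown 16–24 h at 35° C in wells holding 2-fold serial dilutions (11 points) of compound prepared in 100% DMSO, following NCCLS M7-A5. MIC, in μg/mL, is the concentration that stops visible growth relative to untreated wells.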

Another test relates to S. aureus ATCC13709. Described as above. The test is classed as cell-based. The note with it: Staphylococcus aureus, ATCC13709; read-out: S. aureus ATCC13709 MIC. In a few lines: as §1
The subject of another test is S. pneumoniae ATCC49619. The test is described as above. It counts as cell-based. The settings on record: Streptococcus pneumoniae, ATCC49619; read-out: S. pneumoniae ATCC49619 MIC. In a few lines:
as §1

Another test has as its target T1, E. coli DNA gyrase (Escherichia coli, UniProt P0AES4+P0AES6).
T1 construct: purchased John Innes Enterprises Ltd. (John Innes Centre, UK)
The test can be described thus: DNA gyrase inhibition assay (supercoiling). The note with it: E. coli DNA gyrase supercoiling, visual inspection of gels; read-out: DNA Gyrase IC50 (converted). It counts as biochemical. How it is done: Inhibition of the supercoiling activity of E. coli DNA gyrase was determined using enzymes, buffers and substrates received from John Innes Enterprises Ltd. (John Innes Centre, UK). The reactions were performed according to the manufacturer's directions, with the following modifications.
DNA supercoiling reactions were carried out in a total reaction volume of 20 μL containing 250 ng of relaxed pBR322, 35 mM Tris-HCl (pH 7.5), 24 mM KCl, 4 mM MgCl2, 2 mM dithiothreitol, 1.8 mM spermidine, 1 mM ATP, 6.5% glycerol and 100 μg/mL albumin. Compounds diluted in 10% DMSO were added to the reaction mixture to reach a final concentration of 0.5% DMSO. Enzyme was diluted to […] in a solution of 50 mM Tris-HCl (pH 7.5), 100 mM KCl, 2 mM dithiothreitol, 1 mM EDTA, and 50% glycerol. Diluted enzyme (0.2 unit) was added to each reaction.
The reactions were incubated at 37° C. for 30 min. The reactions were then cooled to 0° C., followed by addition of 3 μL of 40% glycerol, 100 mM Tris-HCl (pH 7.5), 50 mM EDTA, 0.5% SDS and 0.1% bromophenol blue. Samples were separated on 1.0% agarose gels. Gels were stained with Ethidium bromide and photographed with a Stratagene Eagle Eye II.

T1 sequence (P0AES4 whole entry, one chain of several): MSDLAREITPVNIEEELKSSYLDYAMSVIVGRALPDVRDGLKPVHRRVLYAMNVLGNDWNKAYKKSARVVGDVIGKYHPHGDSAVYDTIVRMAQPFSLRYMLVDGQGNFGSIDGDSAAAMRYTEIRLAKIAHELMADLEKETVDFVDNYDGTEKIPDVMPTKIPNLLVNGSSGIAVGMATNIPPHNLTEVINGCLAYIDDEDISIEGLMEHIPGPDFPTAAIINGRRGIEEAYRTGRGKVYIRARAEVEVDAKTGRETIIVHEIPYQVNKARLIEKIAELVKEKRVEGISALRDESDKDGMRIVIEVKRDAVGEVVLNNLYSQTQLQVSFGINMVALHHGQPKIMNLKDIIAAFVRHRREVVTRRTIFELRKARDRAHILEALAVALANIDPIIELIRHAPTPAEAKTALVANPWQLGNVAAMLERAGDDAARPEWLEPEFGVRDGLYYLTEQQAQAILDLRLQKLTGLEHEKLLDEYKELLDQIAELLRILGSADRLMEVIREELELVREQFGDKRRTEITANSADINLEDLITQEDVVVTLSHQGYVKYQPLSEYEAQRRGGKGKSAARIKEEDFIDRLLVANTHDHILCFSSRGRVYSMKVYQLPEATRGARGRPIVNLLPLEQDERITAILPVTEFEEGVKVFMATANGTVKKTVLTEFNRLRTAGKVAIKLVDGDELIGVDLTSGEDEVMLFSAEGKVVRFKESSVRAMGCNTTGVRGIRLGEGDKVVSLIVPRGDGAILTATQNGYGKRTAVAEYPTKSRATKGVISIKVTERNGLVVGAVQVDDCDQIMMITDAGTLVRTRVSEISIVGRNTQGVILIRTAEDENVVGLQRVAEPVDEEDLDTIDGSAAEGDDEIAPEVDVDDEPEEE

Regarding `COc1ccc2nccc(-n3cc4c(n3)CCC(NC(=O)/C=C/c3ccc(Cl)cc3)C4)c2n1` (stereo not shown) [Example 90, 3-(4-Chloro-phenyl)-N-[2-(6-methoxy-[1,5]naphthyridin-4-yl)-4,5,6,7-tetrahydro-2H-indazol-5-yl]-acrylamide], the minimum inhibitory concentration (MIC) in test [1] is above 128 µg/mL; in the test on S. aureus ATCC13709, 0.5 µg/mL (≈ 1.09 µM); in the test on S. pneumoniae ATCC49619, above 128 µg/mL. Moreover, the IC50 on E. coli DNA gyrase was above 34.8 µM.
On to `COc1ccc2nccc(-n3cc4c(n3)CCC(NC(=O)/C=C/c3ccc(F)cc3)C4)c2n1` (stereo not shown) [Example 13, 3-(4-Fluoro-phenyl)-N-[2-(6-methoxy-[1,5]naphthyridin-4-yl)-4,5,6,7-tetrahydro-2H-indazol-5-yl]-acrylamide], for which the results for the minimum inhibitory concentration (MIC) (in test [1]; in the test on S. aureus ATCC13709; in the test with S. pneumoniae ATCC49619) were above 128 µg/mL, 0.5 µg/mL (≈ 1.13 µM) and 8 µg/mL (≈ 18 µM), respectively. Further, at E. coli DNA gyrase, the IC50 was above 36.1 µM.
For `COc1ccc2nccc(-n3cc4c(n3)CCC(NCc3cc5c(cc3F)OCCO5)C4)c2n1` (stereo not shown) [Example 43, (7-Fluoro-2,3-dihydro-benzo[1,4]dioxin-6-ylmethyl)-[2-(6-methoxy-[1,5]naphthyridin-4-yl)-4,5,6,7-tetrahydro-2H-indazol-5-yl]-amine], in that order: 16 µg/mL (≈ 34.7 µM), above 0.125 µg/mL, 1 µg/mL (≈ 2.17 µM) and 1.08 µM.
For `COc1ccc2nccc(-n3cc4c(n3)CCC(NCC(=O)Nc3ccc(C)cc3)C4)c2n1` (stereo not shown) [Example 60, 2-[2-(6-Methoxy-[1,5]naphthyridin-4-yl)-4,5,6,7-tetrahydro-2H-indazol-5-ylamino]-N-p-tolyl-acetamide], in that order: above 128 µg/mL, 1 µg/mL (≈ 2.26 µM), 8 µg/mL (≈ 18.1 µM) and above 36.2 µM.
With `O=C1CSc2ccc(C(=O)NC3CCc4c(cnn4-c4cc(C(F)(F)F)nc5ccccc45)C3)cc2N1` (stereo not shown) [Example 97, 3-Oxo-3,4-dihydro-2H-benzo[1,4]thiazine-6-carboxylic acid [1-(2-trifluoromethyl-quinolin-4-yl)-4,5,6,7-tetrahydro-1H-indazol-5-yl]-amide], the MIC (in test [1]; with S. aureus ATCC13709; in the test with S. pneumoniae ATCC49619) was above 128 µg/mL each time. Besides, the IC50 at E. coli DNA gyrase was above 30.6 µM.
For the molecule `COc1ccc2nccc(-n3cc4c(n3)CCC(NCCOc3ccccc3)C4)c2n1` (stereo not shown) [Example 65, [2-(6-Methoxy-[1,5]naphthyridin-4-yl)-4,5,6,7-tetrahydro-2H-indazol-5-yl]-(2-phenoxy-ethyl)-amine], the MIC was above 128 µg/mL in test [1], 0.5 µg/mL (≈ 1.2 µM) in the test with S. aureus ATCC13709 and 1 µg/mL (≈ 2.41 µM) in the test with S. pneumoniae ATCC49619. Also, the IC50 at E. coli DNA gyrase was 2.41 µM.
In the case of `COc1ccc2nccc(-n3cc4c(n3)CCC(NCc3ccc(N(C)C)c(C#N)c3F)C4)c2n1` (stereo not shown) [Example 35, 6-Dimethylamino-2-fluoro-3-{[2-(6-methoxy-[1,5]naphthyridin-4-yl)-4,5,6,7-tetrahydro-2H-indazol-5-ylamino]-methyl}-benzonitrile], the MIC is above 128 µg/mL in test [1], below 0.125 µg/mL in the test with S. aureus ATCC13709 and 1 µg/mL (≈ 2.12 µM) with S. pneumoniae ATCC49619. Further, the 50% inhibitory concentration (IC50) at E. coli DNA gyrase is 4.24 µM.
Consider `COc1ccc2nccc(-n3cc4c(n3)CCC(NC(=O)/C=C/c3ccc(F)cc3F)C4)c2n1` (stereo not shown) [Example 120, 3-(2,4-Difluoro-phenyl)-N-[2-(6-methoxy-[1,5]naphthyridin-4-yl)-4,5,6,7-tetrahydro-2H-indazol-5-yl]-acrylamide], for which the results for the MIC (in test [1]; in the test on S. aureus ATCC13709; in the test with S. pneumoniae ATCC49619) were above 128 µg/mL, 0.125 µg/mL (≈ 0.271 µM) and 4 µg/mL (≈ 8.67 µM), respectively. Moreover, the half-maximal inhibitory concentration (IC50) at E. coli DNA gyrase is 4.33 µM.
Regarding `COc1ccc2nccc(-n3cc4c(n3)CCC(NC(=O)c3ccc5c(c3)N(C)C(=O)CS5)C4)c2n1` (stereo not shown) [Example 69, 4-Methyl-3-oxo-3,4-dihydro-2H-benzo[1,4]thiazine-6-carboxylic acid [2-(6-methoxy-[1,5]naphthyridin-4-yl)-4,5,6,7-tetrahydro-2H-indazol-5-yl]-amide], the minimum inhibitory concentration (MIC) in test [1] was above 128 µg/mL; in the test with S. aureus ATCC13709 it was 4 µg/mL (≈ 7.99 µM); with S. pneumoniae ATCC49619, 64 µg/mL (≈ 128 µM). Moreover, the IC50 at E. coli DNA gyrase was above 7.99 µM.
As to `COc1ccc2nccc(-n3cc4c(n3)CCC(NC(=O)c3ccc5c(c3)NC(=O)CO5)C4)c2c1` (stereo not shown) [Example 116, 3-Oxo-3,4-dihydro-2H-benzo[1,4]oxazine-6-carboxylic acid [2-(6-methoxy-quinolin-4-yl)-4,5,6,7-tetrahydro-2H-indazol-5-yl]-amide], the MIC in test [1] came out at 2 µg/mL (≈ 4.26 µM); with S. aureus ATCC13709, 0.125 µg/mL (≈ 0.266 µM); with S. pneumoniae ATCC49619 it was 4 µg/mL (≈ 8.52 µM). Besides, the half-inhibitory concentration (IC50) on E. coli DNA gyrase is 0.532 µM.
On to `COc1ccc2nccc(-n3cc4c(n3)CCC(NC(=O)c3cc5c(cc3Cl)SCC(=O)N5)C4)c2c1` (stereo not shown) [Example 20, 7-Chloro-3-oxo-3,4-dihydro-2H-benzo[1,4]thiazine-6-carboxylic acid [2-(6-methoxy-quinolin-4-yl)-4,5,6,7-tetrahydro-2H-indazol-5-yl]-amide], for which the minimal inhibitory concentration (MIC) is 2 µg/mL (≈ 3.85 µM) in test [1], below 0.125 µg/mL in the test with S. aureus ATCC13709 and 2 µg/mL (≈ 3.85 µM) in the test on S. pneumoniae ATCC49619. Besides, at E. coli DNA gyrase, the 50% inhibitory concentration (IC50) was 0.962 µM.
Consider `COc1ccc2nccc(-n3cc4c(n3)CCC(NCCCc3ccccc3)C4)c2n1` (stereo not shown) [Example 45, [2-(6-Methoxy-[1,5]naphthyridin-4-yl)-4,5,6,7-tetrahydro-2H-indazol-5-yl]-(3-phenyl-propyl)-amine], for which the MIC is 128 µg/mL (≈ 310 µM) in test [1], 0.25 µg/mL (≈ 0.605 µM) with S. aureus ATCC13709 and below 0.125 µg/mL with S. pneumoniae ATCC49619. Also, at E. coli DNA gyrase, the IC50 is 1.93 µM.
For `COc1ccc2nccc(-n3cc4c(n3)CCC(NC(=O)/C=C/c3ccccn3)C4)c2n1` (stereo not shown) [Example 95, N-[2-(6-Methoxy-[1,5]naphthyridin-4-yl)-4,5,6,7-tetrahydro-2H-indazol-5-yl]-3-pyridin-2-yl-acrylamide], in that order: above 128 µg/mL, 2 µg/mL (≈ 4.69 µM), 8 µg/mL (≈ 18.8 µM) and above 37.5 µM.
Consider `COc1ccc2nccc(-n3cc4c(n3)CCC(NCc3cc5c(cc3Cl)OCCO5)C4)c2n1` (stereo not shown) [Example 104, (7-Chloro-2,3-dihydro-benzo[1,4]dioxin-6-ylmethyl)-[2-(6-methoxy-[1,5]naphthyridin-4-yl)-4,5,6,7-tetrahydro-2H-indazol-5-yl]-amine], for which the minimum inhibitory concentration (MIC) is 8 µg/mL (≈ 16.7 µM) in test [1], 0.125 µg/mL (≈ 0.262 µM) in the test with S. aureus ATCC13709 and 1 µg/mL (≈ 2.09 µM) in the test on S. pneumoniae ATCC49619. The IC50 at E. coli DNA gyrase is 1.05 µM.
Turning to `COc1ccc2nccc(-n3ncc4c3CCC(NC(=O)c3cc5c(cc3F)SCC(=O)N5)C4)c2c1` (stereo not shown) [Example 19, 7-Fluoro-3-oxo-3,4-dihydro-2H-benzo[1,4]thiazine-6-carboxylic acid [1-(6-methoxy-quinolin-4-yl)-4,5,6,7-tetrahydro-1H-indazol-5-yl]-amide], the MIC in test [1] was above 128 µg/mL; in the test on S. aureus ATCC13709 it was 0.5 µg/mL (≈ 0.993 µM); with S. pneumoniae ATCC49619, 8 µg/mL (≈ 15.9 µM). On E. coli DNA gyrase, the half-maximal inhibitory concentration (IC50) is above 63.5 µM.
Turning to `COc1ccc2nccc(-n3cc4c(n3)CCC(NCCCc3ccc(Cl)c(Cl)c3)C4)c2n1` (stereo not shown) [Example 48, [3-(3,4-Dichloro-phenyl)-propyl]-[2-(6-methoxy-[1,5]naphthyridin-4-yl)-4,5,6,7-tetrahydro-2H-indazol-5-yl]-amine], the values for the minimum inhibitory concentration (MIC) (in test [1]; in the test with S. aureus ATCC13709; in the test on S. pneumoniae ATCC49619) were 32 µg/mL (≈ 66.3 µM), 0.25 µg/mL (≈ 0.518 µM) and 1 µg/mL (≈ 2.07 µM), respectively. At E. coli DNA gyrase, the IC50 is above 66.3 µM.
On to `COc1ccc2nccc(-n3cc4c(n3)CCC(NC(=O)c3cc5cc(C)ccc5[nH]3)C4)c2c1` (stereo not shown) [Example 75, 5-Methyl-1H-indole-2-carboxylic acid [2-(6-methoxy-quinolin-4-yl)-4,5,6,7-tetrahydro-2H-indazol-5-yl]-amide], for which the MIC in test [1] is above 128 µg/mL; in the test with S. aureus ATCC13709 it was 4 µg/mL (≈ 8.86 µM); with S. pneumoniae ATCC49619, 16 µg/mL (≈ 35.4 µM). For the same molecule, the IC50 at E. coli DNA gyrase is above 35.4 µM.
On to `COc1ccc2nccc(-n3cc4c(n3)CCC(NC(=O)c3cc5cc(Cl)ccc5[nH]3)C4)c2c1` (stereo not shown) [Example 77, 5-Chloro-1H-indole-2-carboxylic acid [2-(6-methoxy-quinolin-4-yl)-4,5,6,7-tetrahydro-2H-indazol-5-yl]-amide], for which the minimal inhibitory concentration (MIC) in test [1] was above 128 µg/mL; in the test on S. aureus ATCC13709 it was 2 µg/mL (≈ 4.24 µM); in the test with S. pneumoniae ATCC49619, 16 µg/mL (≈ 33.9 µM). Besides, the IC50 on E. coli DNA gyrase is above 33.9 µM.
For the molecule `COc1ccc2nccc(-n3cc4c(n3)CCC(NC(=O)c3cc5cc(F)c(F)cc5[nH]3)C4)c2c1` (stereo not shown) [Example 74, 5,6-Difluoro-1H-indole-2-carboxylic acid [2-(6-methoxy-quinolin-4-yl)-4,5,6,7-tetrahydro-2H-indazol-5-yl]-amide], the MIC in test [1] was above 128 µg/mL; with S. aureus ATCC13709 it was 1 µg/mL (≈ 2.11 µM); with S. pneumoniae ATCC49619 it was 8 µg/mL (≈ 16.9 µM). The concentration for half-maximal inhibition (IC50) at E. coli DNA gyrase is 4.22 µM.

The term MIC denotes the lowest concentration that inhibits growth of the organism. A word on the IC50: it is the concentration at which inhibition is half-maximal.
